Values after ≈ are worked out from the molar mass of the structure shown.
What was measured:
Escherichia coli [1] = experiment: In vivo antibacterial activity, protection of mice against systemic infection (lethal intraperitoneal inoculum); conditions: infected mice, multiple dosing
Escherichia coli [2] = experiment: In vitro antibacterial activity (MIC), two-fold serial dilution in Brain-Heart Infusion broth; format: cell-based; conditions: E. coli, overnight
Procedure: (§1) The broth is inoculated with the bacterial culture, and with the test compound, and then it is incubated overnight. On the next day, the test is read visually. The minimum inhibitory concentration (MIC) is the lowest concentration of compound which prevents turbidity, i.e., which prevents growth of the microorganism. In vitro activities against certain pathogenic bacteria area shown in Table I. This in vitro activity makes the compound of value for topical applications, for example, in the form of creams and ointments, and for the sterilization of sickroom and hospital surfaces, equipment and the like. […] This in vivo activity makes this compound suitable for the control of bacterial infections caused by susceptible organisms, in mammals, including man, by both the oral and parenteral mode of administration.

Streptococcus pyogenes = experiment: as above; format: cell-based; conditions: S. pyogenes, overnight
Procedure: as §1

Staphylococcus aureus [3] = experiment: as above; format: cell-based; conditions: S. aureus, overnight
Procedure: as §1

[4] = tested on: Staphylococcus aureus or Escherichia coli; experiment: In vivo antibacterial activity in infected mice (statement in words); conditions: SC and PO
Procedure: as §1

[5] = tested on: gram-positive and gram-negative bacteria; experiment: In vitro activity against gram-positive and gram-negative bacteria; format: cell-based
Procedure: as §1

Staphylococcus aureus [6] = experiment: In vivo antibacterial activity, protection of mice against systemic infection (lethal intraperitoneal inoculum); conditions: infected mice, multiple dosing
Isoelectric point = format: physicochemical; conditions: in water

| Compound | Percentage protection E. coli (Escherichia coli [1]; 25 mg./kg. SC) | Percentage protection E. coli (Escherichia coli [1]; 50 mg./kg. SC) | Percentage protection E. coli (Escherichia coli [1]; 200 mg./kg. PO) | MIC (Escherichia coli [2]) | MIC (Streptococcus pyogenes) | MIC (Staphylococcus aureus [3]) | antibacterial activity in vivo [4] | activity against a wide variety of gram-positive and gram-negative bacteria [5] | Percentage protection S. Aureus (Staphylococcus aureus [6]; 6 mg./kg. SC) | Percentage protection S. Aureus (Staphylococcus aureus [6]; 12 mg./kg. SC) | Percentage protection S. Aureus (Staphylococcus aureus [6]; 25 mg./kg. SC) | Percentage protection S. Aureus (Staphylococcus aureus [6]; 50 mg./kg. SC) | isoelectric point (Isoelectric point) |
| --- | --- | --- | --- | --- | --- | --- | --- | --- | --- | --- | --- | --- | --- |
| CC1(C)S[C@@H]2[C@H](NC(=O)[C@H](N)c3ccc(O)cc3)C(=O)N2[C@H]1c1nn[nH]n1 [6-(D-2-Amino-2-[4-hydroxyphenyl]acetamido)-2,2-dimethyl-3-(5-tetrazolyl)penam] | 80% | 100% | 100% | 780 ng/mL (≈ 2 µM) | 1 ng/mL (≈ 0.00257 µM) | 6 ng/mL (≈ 0.0154 µM) | active as an antibacterial agent in vivo | shows activity against a wide variety of gram-positive and gram-negative bacteria | 50% | 50% | 70% | 80% | – |
| CC1(C)S[C@@H]2[C@H](N)C(=O)N2[C@H]1c1nn[nH]n1 [6-amino-2,2-dimethyl-3-(5-tetrazolyl)penam] | – | – | – | – | – | – | – | – | – | – | – | – | ~4.1 pH |
